Results: patent publication US8604053B2, “TRPV1 antagonists” (AbbVie Inc., priority 2008, dated 2013)

Key:
[1] = Assessment of hemodynamic profile in anesthetized rat; format: in vivo; conditions: i.v. infusion 3, 10 and 30 mg/kg/30 minutes/dose, relative to vehicle control group
Method: Male Sprague-Dawley rats were anesthetized with Inactin, instrumented, and allowed to stabilize. Following a 30 minute baseline period, test compound was infused via intravenous administration at 3, 10, and 30 mg/kg/30 minutes/dose in a low volume PEG-400 vehicle (1 mL/kg) or 20:40:40 dimethylacetamide:propylene glycol:PEG-400 vehicle (1 mL/kg). A separate group of animals received infusion of vehicle alone. Mean arterial pressure (MAP) and heart rate (HR) were observed and recorded.

[2] = target: T1, CYP3A4 (Homo sapiens, UniProt P08684); test: CYP3A4 inhibition assay; format: in vitro ADME; conditions: pH 7.4, probe 7-benzyloxyquiniline (BZQ), 50 μM final, human liver microsomes, substrate BZQ, read-out: CYP3A4 % inh @ 2.2 μM
T1 construct: human liver microsomes (BD Gentest, 450 μL; final concentration: 0.4 mg/mL); tissue BD Gentest; host or cells: human liver microsomes
Method: Luciferin-H was used as the substrate for CYP2C9; 3-[2-(N,N-diethyl-N-methylammonium)ethyl]-7-methoxy-4-methylcoumarin (AMMC) was used as the substrate for CYP2D6; 7-benzyloxyquiniline (BZQ) was used as the substrate for CYP3A4.
Pre-Incubation Mixture Preparation for CYP3A4: A pre-incubation mixture was prepared by combining 100 mM phosphate buffer (19.35 mL; pH 7.4), human liver microsomes (BD Gentest, 450 μL; final concentration: 0.4 mg/mL), and 10 mM nicotinamide adenine dinucleotide phosphate in 65.4 mM MgCl2 hexahydrate (225 μL; final concentration: 100 μM and 654 μM, respectively). To this was mixture was added a ‘regeneration’ mixture (225 μL) of 333 mM glucose-6-phosphate and 40 U/mL glucose-6-phosphate dehydrogenase in 5 mM sodium citrate (final concentration: 3.3 mM, 0.4 U/mL, and 0.05 mM, respectively).
Substrate Mixture Preparation for CYP3A4: To a solution of 100 mM phosphate buffer, (2.36 mL, pH 7.4) was added 30 mM BZQ in acetonitrile (40 μL; final solution concentration 0.5 mM, final assay concentration 50 μM).
(§1) CYP3A4 Inhibiton Assay: To each well in the assay plate containing varying concentrations of test compound or control compound in DMSO (10 μL), CYP3A4 Pre-Incubation Mixture (90 μL) was added to the wells and the assay plate was pre-incubated for 10 minutes at 37° C., with shaking or rocking. A pre-read of each well was performed at 405 nm and 535 nm extinction/emission. CYP3A4 Substrate Mixture (10 μL) was added to all wells and the assay plate was incubated for an additional […] at 37° C., with shaking or rocking. Final DMSO concentration was 1%. A post-read of each well was then performed at 405 nm and 535 nm extinction/emission.

[3] = target: T2, CYP2C9 (Homo sapiens, UniProt P11712); test: CYP2C9 inhibition assay; format: in vitro ADME; conditions: pH 7.4, probe Luciferin-H (100 μM final), human liver microsomes, substrate Luciferin-H, read-out: CYP2C9 % inh @ 2.2 μM
T2 construct: human liver microsomes (BD Gentest); tissue BD Gentest; host or cells: human liver microsomes
Method: (§2) Stock solutions of test compounds were assayed in 96-well format for their ability to inhibit CYP2C9, CYP2D6, or CYP3A4 mediated metabolism of test substrates. Luciferin-H was used as the substrate for CYP2C9; 3-[2-(N,N-diethyl-N-methylammonium)ethyl]-7-methoxy-4-methylcoumarin (AMMC) was used as the substrate for CYP2D6; 7-benzyloxyquiniline (BZQ) was used as the substrate for CYP3A4. For each subtype, positive controls (sulphaphenazole in the case of CYP2C9; quinidine in the case of CYP2D6, ketoconazole in the case of CYP3A4) were used to validate assay results run in duplicate.
(§3) Pre-Incubation Mixture Preparation for CYP2C9 and CYP2D6: A pre-incubation mixture was prepared by combining 100 mM phosphate buffer (9.12 mL; pH 7.4), human liver microsomes (BD Gentest, 240 itt; final concentration: 0.4 mg/mL), and 10 mM nicotinamide adenine dinucleotide phosphate in 65.4 mM MgCl2 hexahydrate (120 μL; final concentration: 125 μM and 818 μM, respectively). To this was mixture is added a ‘regeneration’ mixture (120 μL) of 333 mM glucose-6-phosphate and 40 U/mL glucose-6-phosphate dehydrogenase in 5 mM sodium citrate (final concentration: 4 mM, 0.5 U/mL, and 0.06 mM, respectively).
Substrate Mixture Preparation for CYP2C9: To a solution of 25 mM phosphate buffer, (2.16 mL, pH 7.4) was added 5 mM Luciferin-H (Promega P450 Glo Assay V8792, 240 μL; final solution concentration 0.5 mM, final assay concentration 100 μM).
CYP2C9 Inhibiton Assay: To each well in the assay plate containing varying concentrations of test compound or control compound in DMSO (10 μL) Pre-Incubation Mixture (40 itt) was added to the wells and the assay plate was pre-incubated for 10 minutes at 37° C., with shaking or rocking. CYP2C9 Substrate Mixture (10 μL) was added to all wells and the assay plate was incubated for an additional 25 minutes at 37° C., with shaking or rocking. Final DMSO concentration was 1%. Luciferin-H detection reagent (Promega kit V8792, 50 μL) was added to all wells. The plate was then vortexed at ambient temperature for between 20 minutes and 2 hours, and the luminescence of each well was then read and recorded.

[4] = target: T3, CYP2D6 (Homo sapiens, UniProt P10635); test: in vitro; format: in vitro ADME; conditions: human, microsomes, pH 7.4
T3 construct: human liver microsomes (BD Gentest); tissue BD Gentest; host or cells: human liver microsomes
Method: as §2, §3
Substrate Mixture Preparation for CYP2D6: To a solution of 100 mM phosphate buffer, (2.80 mL, pH 7.4) was added 10 mM AMMC in acetonitrile (14 itt; final solution concentration 0.05 mM, final assay concentration 10 μM).
as §1, with “CYP2D6” for “CYP3A4”, “μL),” for “μL), CYP3A4”, “(40” for “(90”, “390” for “405”, “460” for “535”

T3 sequence (P10635 whole entry): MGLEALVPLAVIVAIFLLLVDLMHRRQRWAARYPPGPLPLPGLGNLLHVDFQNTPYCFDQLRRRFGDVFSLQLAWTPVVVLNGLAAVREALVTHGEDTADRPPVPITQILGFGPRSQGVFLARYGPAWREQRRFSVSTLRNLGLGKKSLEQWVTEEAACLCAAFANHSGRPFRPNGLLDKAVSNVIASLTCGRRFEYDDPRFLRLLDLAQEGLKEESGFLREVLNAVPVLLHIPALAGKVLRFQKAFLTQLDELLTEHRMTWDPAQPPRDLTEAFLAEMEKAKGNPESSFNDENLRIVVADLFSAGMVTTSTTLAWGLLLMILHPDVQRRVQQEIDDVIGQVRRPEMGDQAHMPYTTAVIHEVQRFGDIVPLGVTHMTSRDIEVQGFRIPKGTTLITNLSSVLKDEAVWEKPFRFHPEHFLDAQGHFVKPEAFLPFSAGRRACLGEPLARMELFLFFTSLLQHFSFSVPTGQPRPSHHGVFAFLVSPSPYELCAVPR
T2 sequence (P11712 whole entry): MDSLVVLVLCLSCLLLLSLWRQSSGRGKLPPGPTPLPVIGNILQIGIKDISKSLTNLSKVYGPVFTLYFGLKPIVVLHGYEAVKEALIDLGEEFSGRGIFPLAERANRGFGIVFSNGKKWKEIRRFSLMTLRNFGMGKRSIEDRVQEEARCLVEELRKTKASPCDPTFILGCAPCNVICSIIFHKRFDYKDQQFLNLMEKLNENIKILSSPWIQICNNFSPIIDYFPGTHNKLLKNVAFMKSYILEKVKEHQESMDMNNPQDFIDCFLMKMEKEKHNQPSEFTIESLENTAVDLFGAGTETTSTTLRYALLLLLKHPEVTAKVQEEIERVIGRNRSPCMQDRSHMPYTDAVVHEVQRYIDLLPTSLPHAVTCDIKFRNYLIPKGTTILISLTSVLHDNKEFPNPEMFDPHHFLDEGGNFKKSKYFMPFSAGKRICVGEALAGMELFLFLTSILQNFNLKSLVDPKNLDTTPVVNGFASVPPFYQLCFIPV
T1 sequence (P08684 whole entry): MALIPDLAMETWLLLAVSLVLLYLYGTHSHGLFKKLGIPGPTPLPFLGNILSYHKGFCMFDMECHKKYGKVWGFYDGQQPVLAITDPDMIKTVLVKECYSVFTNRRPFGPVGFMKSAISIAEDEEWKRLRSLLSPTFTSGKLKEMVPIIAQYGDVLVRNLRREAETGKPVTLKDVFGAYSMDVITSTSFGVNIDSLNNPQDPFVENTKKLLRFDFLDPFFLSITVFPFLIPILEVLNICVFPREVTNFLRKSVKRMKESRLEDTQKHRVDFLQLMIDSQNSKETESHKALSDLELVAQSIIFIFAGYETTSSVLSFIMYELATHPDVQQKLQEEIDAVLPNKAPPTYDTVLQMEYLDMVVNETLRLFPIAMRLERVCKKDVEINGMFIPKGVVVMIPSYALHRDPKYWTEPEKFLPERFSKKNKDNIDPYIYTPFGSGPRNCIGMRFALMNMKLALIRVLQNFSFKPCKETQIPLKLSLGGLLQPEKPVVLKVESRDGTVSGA

With Cc1cc2c(NC(=O)N[C@@H]3C[C@](C)(CF)Oc4cc(Cl)ccc43)cccc2cn1 (single isomer, unassigned) [Example 121] the “Change in MAP or HR ≧ 15% ?” value [1] was “Yes (An observed increase or decrease of greater than 15% in MAP (mean arterial pressure) or HR (heart rate) in one or more of the animals in the test group relative to the vehicle control group is indicated as “Yes” in the table)”, the inhibition at 25 min, 2.2 µM [2] was 23% and the inhibition at 25 min, 2.2 µM [3] was 15%. For the same molecule, the inhibition at 25 min, 2.2 µM [4] was 8%.
In the case of Cc1cc2c(NC(=O)N[C@@H]3C[C@@](C)(CF)Oc4cc(Cl)ccc43)cccc2cn1 (single isomer, unassigned) [Example 122], the “Change in MAP or HR ≧ 15% ?” value [1] is reported as “No (an observed increase or decrease of less than or equal to 15% in MAP (mean arterial pressure) or HR (heart rate) in the test group of animals relative to the vehicle control group is indicated as “No” in the table)”, the inhibition at 25 min, 2.2 µM [2] is reported as 20% and the inhibition at 25 min, 2.2 µM [3] is reported as 20%. The inhibition at 25 min, 2.2 µM [4] was 5%.
With Cc1cc2c(NC(=O)N[C@@H]3C[C@@](C)(C(F)F)Oc4cc(Cl)ccc43)cccc2cn1 (single isomer, unassigned) [Example 124] the “Change in MAP or HR ≧ 15% ?” value [1] was “No (an observed increase or decrease of less than or equal to 15% in MAP (mean arterial pressure) or HR (heart rate) in the test group of animals relative to the vehicle control group is indicated as “No” in the table)”, the inhibition at 25 min, 2.2 µM [2] was 21% and the inhibition at 25 min, 2.2 µM [3] was 1.2%. It also gave an inhibition at 25 min, 2.2 µM [4] of 8.4%.
With CC1(C)C[C@@H](NC(=O)Nc2cccc3cnccc23)c2cc(F)ccc2O1 [Example 5, N-[(4R)-6-fluoro-2,2-dimethyl-3,4-dihydro-2H-chromen-4-yl]-N′-isoquinolin-5-ylurea] the “Change in MAP or HR ≧ 15% ?” value [1] was “Yes (An observed increase or decrease of greater than 15% in MAP (mean arterial pressure) or HR (heart rate) in one or more of the animals in the test group relative to the vehicle control group is indicated as “Yes” in the table)”, the inhibition at 25 min, 2.2 µM [2] was 61% and the inhibition at 25 min, 2.2 µM [3] was 55%. It also gave an inhibition at 25 min, 2.2 µM [4] of 100%.
For CCC1(CC)C[C@@H](NC(=O)Nc2cccc3cnccc23)c2cc(F)ccc2O1 [Example 28, N-[(4R)-2,2-diethyl-6-fluoro-3,4-dihydro-2H-chromen-4-yl]-N′-isoquinolin-5-ylurea], the “Change in MAP or HR ≧ 15% ?” value [1] was “Yes (An observed increase or decrease of greater than 15% in MAP (mean arterial pressure) or HR (heart rate) in one or more of the animals in the test group relative to the vehicle control group is indicated as “Yes” in the table)”, the inhibition at 25 min, 2.2 µM [2] was 19% and the inhibition at 25 min, 2.2 µM [3] was 35%. The inhibition at 25 min, 2.2 µM [4] was 98%.
In the case of Cc1cc2c(NC(=O)N[C@@H]3CC(CF)(CF)Oc4ccc(F)cc43)cccc2cn1 [Example 65, N-[(4R)-6-fluoro-2,2-bis(fluoromethyl)-3,4-dihydro-2H-chromen-4-yl]-N′-(3-methylisoquinolin-5-yl)urea], the “Change in MAP or HR ≧ 15% ?” value [1] is reported as “No (an observed increase or decrease of less than or equal to 15% in MAP (mean arterial pressure) or HR (heart rate) in the test group of animals relative to the vehicle control group is indicated as “No” in the table)”, the inhibition at 25 min, 2.2 µM [2] is reported as 0.57% and the inhibition at 25 min, 2.2 µM [3] is reported as 0%. The inhibition at 25 min, 2.2 µM [4] was 12%.
For Cc1cc2c(NC(=O)N[C@@H]3CCOc4c(OC(F)(F)F)cccc43)cccc2cn1 [Example 66, N-(3-methylisoquinolin-5-yl)-N′-[(4R)-8-(trifluoromethoxy)-3,4-dihydro-2H-chromen-4-yl]urea], the “Change in MAP or HR ≧ 15% ?” value [1] was “No (an observed increase or decrease of less than or equal to 15% in MAP (mean arterial pressure) or HR (heart rate) in the test group of animals relative to the vehicle control group is indicated as “No” in the table)”, the inhibition at 25 min, 2.2 µM [2] was 0% and the inhibition at 25 min, 2.2 µM [3] was 4.5%. It also gave an inhibition at 25 min, 2.2 µM [4] of 9.5%.
In the case of Cc1cc2c(NC(=O)N[C@@H]3CC(CF)(CF)Oc4c(F)cccc43)cccc2cn1 [Example 85, N-[(4R)-8-fluoro-2,2-bis(fluoromethyl)-3,4-dihydro-2H-chromen-4-yl]-N′-(3-methylisoquinolin-5-yl)urea], the “Change in MAP or HR ≧ 15% ?” value [1] is reported as “No (an observed increase or decrease of less than or equal to 15% in MAP (mean arterial pressure) or HR (heart rate) in the test group of animals relative to the vehicle control group is indicated as “No” in the table)”, the inhibition at 25 min, 2.2 µM [2] is reported as 0% and the inhibition at 25 min, 2.2 µM [3] is reported as 7.2%. It also gave an inhibition at 25 min, 2.2 µM [4] of 10%.
With Cc1cc2c(NC(=O)N[C@@H]3CC(C)(C)Oc4cc(F)ccc43)cccc2cn1 [Example 95, N-[(4R)-7-fluoro-2,2-dimethyl-3,4-dihydro-2H-chromen-4-yl]-N′-(3-methylisoquinolin-5-yl)urea] the “Change in MAP or HR ≧ 15% ?” value [1] was “Yes (An observed increase or decrease of greater than 15% in MAP (mean arterial pressure) or HR (heart rate) in one or more of the animals in the test group relative to the vehicle control group is indicated as “Yes” in the table)”, the inhibition at 25 min, 2.2 µM [2] was 0% and the inhibition at 25 min, 2.2 µM [3] was 0%. It also gave an inhibition at 25 min, 2.2 µM [4] of 3.5%.
With Cc1cc2c(NC(=O)N[C@@H]3CC(CF)(CF)Oc4cc(F)ccc43)cccc2cn1 [Example 96, N-[(4R)-7-fluoro-2,2-bis(fluoromethyl)-3,4-dihydro-2H-chromen-4-yl]-N′-(3-methylisoquinolin-5-yl)urea] the “Change in MAP or HR ≧ 15% ?” value [1] was “Yes (An observed increase or decrease of greater than 15% in MAP (mean arterial pressure) or HR (heart rate) in one or more of the animals in the test group relative to the vehicle control group is indicated as “Yes” in the table)”, the inhibition at 25 min, 2.2 µM [2] was 0% and the inhibition at 25 min, 2.2 µM [3] was 4.1%. For the same molecule, the inhibition at 25 min, 2.2 µM [4] was 7.9%.
For Cc1cc2c(NC(=O)N[C@@H]3CC(C)(C)Oc4cc(Cl)ccc43)cccc2cn1 [Example 97, N-[(4R)-7-chloro-2,2-dimethyl-3,4-dihydro-2H-chromen-4-yl]-N′-(3-methylisoquinolin-5-yl)urea], the “Change in MAP or HR ≧ 15% ?” value [1] was “Yes (An observed increase or decrease of greater than 15% in MAP (mean arterial pressure) or HR (heart rate) in one or more of the animals in the test group relative to the vehicle control group is indicated as “Yes” in the table)”, the inhibition at 25 min, 2.2 µM [2] was 0% and the inhibition at 25 min, 2.2 µM [3] was 17%. For the same molecule, the inhibition at 25 min, 2.2 µM [4] was 19%.
